{"source": "patent US12258304B2", "about": "“Compounds and methods for treatment of bacterial infections” (Albert Einstein College of Medicine, priority 2019, dated 2025)", "molecules": {"B1": {"name": "PhMqnE (MqnE from Pedobacter heparinus) (Pedobacter heparinus DSM 2366) (protein)", "chain": "MDTTSKLALILADADLPAALKAIALKVQNQERITFDEGVYLYENAELGYLGVLANYIREQKHGDNTYFNRNFHIEPTNVCVYDCKFCSYSRLIKQKEEGWEMSVDGMMEVLKKYDHEPVTEVHITGGVVPKQNLEFYSDFFRRAKAHRPELHIKALTPVEYYYIFKKAKLSHYDGMKYMQEAGLDSMPGGGAEIFHPEVREKIAHDKCNAEQWLDIHEQAHKLGMKTNATMLYGHIEQFWHRVDHMERLRRQQDKTGGFQAFIPLKFRNQHNQMDHVPEVSVIEDLRNYAIARIYMDNFDHIKAYWAMISRQTAQLSLNFGVDDIDGTLDDTTKIYSMAGAEEQHPAMSTRDLVDLIKQVKRKPIERDTLYNVVTDYSQVTFEDEVKPQYYKLPVIN"}}, "key": {"HEK293T cells": {"system": "HEK293T cells", "assay": "HEK293T cell growth and viability", "assay_type": "cell-based, human", "settings": "1 mM 2F-DHC, 24 and 48 hr culture", "procedure": "(§1) FIGS. 4(a) and 4(b) illustrate E. coli and HEK293T cell growth in the presence of 2F-DHC.\n(§2) As shown in FIG. 4(a), an overnight culture of E. coli was diluted 1:25 into 100 μL of minimal media with either 1 μL of DMSO (no DHC control) or 1 μL of 100 mM 2F-DHC in DMSO in a 96-well plate. The plate was shaken at 37° C. and monitored for at 2, 3, and 4 hr post inoculation by measuring the OD600. […] Cell growth and viability were measured with an automated cell counter after staining with tryptan blue (Countess, Life Technologies)."}, "Escherichia coli": {"system": "Escherichia coli", "assay": "E. coli growth in minimal media (OD600)", "assay_type": "cell-based", "settings": "1 μL of 100 mM 2F-DHC in 100 μL minimal media, OD600 at 2, 3 and 4 hr", "description": "as §1\n(§3) Hp grows under microanaerobic conditions in the human gut, where over population can lead to ulcers and cancer. Based on the K results described above, the effects of 2F-DHC were examined on the growth of Hp in BHI medium supplemented with 10% fetal bovine serum and Hp selective supplement (DENT supplement) in 96-well plate format. Growth of Hp was detected by measuring the optical density of the media at 600 nm after 72 hr of growth at 37° C. […] To determine if 2F-DHC inhibits Hp growth by specifically blocking the action of MqnE in the futalosine pathway, it was tested whether the product of MqnE, AF, could rescue Hp growth in the presence of 2F-DHC.\nas §2"}, "[1]": {"biological_target": "T1, PhMqnE (MqnE from Pedobacter heparinus) (Pedobacter heparinus, UniProt C6XW09)", "assay": "PhMqnE competition / inhibition assay (AF formation)", "assay_type": "biochemical", "procedure": "(§4) FIGS. 2(a), 2(b) and 2(c) illustrate inhibition studies of MqnE. […] Assays contained 0.5 μM of PhMqnE, 1 mM SAM, 1 mM DHC, and 2-FDHC varied from 5 μM to 2 mM.\n(§5) The mqnE gene from Pedobacter heparinus (PhMqnE) was coexpressed together with the pPH151 plasmid, which contains the suf operon from E. coli under the control of a T7 promoter, to promote proper FeS cluster assembly in PhMqnE. […] It was surmised that positioning fluorine atoms around the aromatic ring of DHC would stabilize the captodative radical intermediate 1 by preventing it from converting to intermediate 2 in FIG. 1(a), thereby acting as a mechanism-based inhibitor and trapping the enzyme in an intermediate state. DHC analogues were synthesized with fluorine at the 2, 4, 5, and 2,4 positions of DHC (FIG. 1 (b))."}, "[2]": {"biological_target": "T1, PhMqnE (MqnE from Pedobacter heparinus)", "assay": "PhMqnE substrate kinetics / turnover of DHC analogues", "assay_type": "biochemical", "procedure": "as §4, §5"}, "Helicobacter pylori (Hp)": {"system": "Helicobacter pylori (Hp)", "assay": "Hp growth inhibition in liquid culture (OD600)", "assay_type": "cell-based", "procedure": "Inhibition was determined by measuring the OD600 of liquid cultures incubated at 37° C. for 48 hours.\nas §3"}, "[3]": {"substrate": "C=C(Oc1cccc(C(=O)O)c1)C(=O)O", "assay": "PhMqnE substrate kinetics / turnover of DHC analogues", "assay_type": "biochemical, Pedobacter heparinus", "settings": "other: purified PhMqnE, dithionite (DT) as electron source"}, "[4]": {"settings": "media supplemented with 1 mM AF, 48 hr"}}, "note": "Entries after “also recorded” stand apart in the source; their conditions may differ.", "data": [{"molecule": "C=C(Oc1cccc(C(=O)O)c1F)C(=O)O", "note": "[2F-DHC]", "values": [{"measurement": "effect on HEK293T cell growth and viability", "setting": "HEK293T cells", "value": "No difference in growth is observed"}, {"measurement": "effect on growth of E. coli", "setting": "Escherichia coli", "value": "no effect; also recorded: No difference in growth is observed"}, {"measurement": "inhibition of AF production", "setting": "[1]; 250 μM inhibitor, 0.5 μM PhMqnE, 1 mM SAM, 1 mM DHC", "value": "almost completely inhibited"}, {"measurement": "rate of AF formation in the presence of inhibitor", "setting": "[1]; competition assay, 2 mM DHC + 2 mM analogue, 3.5 min^−1 without analogues", "value": 0.2, "unit": "min⁻¹"}, {"measurement": "Ki", "setting": "[1]; fit to non-linear competitive inhibition equation, 0.5 μM PhMqnE, 1 mM SAM, 1 mM DHC", "value": "~2", "unit": "µM"}, {"measurement": "fold slower product formation than with DHC as substrate", "setting": "[2]; 2 mM SAM and 2 mM 2F-DHC", "value": "~10", "unit": "fold"}, {"measurement": "rate of conversion to fluorinated AF product", "setting": "[2]; 2 mM SAM and 2 mM analogue as sole substrate", "value": 0.41, "unit": "min⁻¹"}, {"measurement": "IC90", "setting": "Helicobacter pylori (Hp); Helicobacter pylori, 72 hr, read-out: minimal inhibitory concentration that restricts >90% of the growth (IC90)", "value": "< 23", "unit": "µg/mL"}, {"measurement": "IC50", "setting": "Helicobacter pylori (Hp); Helicobacter pylori, BHI medium, 10% FBS, OD600 after 72 hr at 37° C.", "value": "31.8 ± 2.5", "unit": "µM"}, {"measurement": "inhibition at 30 µM", "setting": "Helicobacter pylori (Hp); Helicobacter pylori, at ˜30 μM (6 pg/mL), 72 hr", "value": "~50", "unit": "%"}, {"measurement": "growth of Hp", "setting": "Helicobacter pylori (Hp); at 1 mM, 48 hr", "value": "completely inhibits growth; also recorded: fully inhibited"}, {"measurement": "growth of Hp", "setting": "Helicobacter pylori (Hp); at, 72 hr", "value": "completely inhibited"}]}, {"molecule": "Nc1ncnc2c1ncn2[C@@H]1O[C@H](CCC(=O)c2cccc(C(=O)O)c2)[C@@H](O)[C@H]1O", "note": "[AF, aminofutalosine, reference compound]", "values": [{"measurement": "OD600 of Hp culture in the presence of 1 mM 2F-DHC", "setting": "Helicobacter pylori (Hp); [4]", "value": "~0.28"}, {"measurement": "rescue of Hp growth in the presence of 1 mM 2F-DHC", "setting": "Helicobacter pylori (Hp); [4]", "value": "fully restored; also recorded: can restore growth"}]}, {"molecule": "C[S+](CC[C@H](N)C(=O)[O-])C[C@H]1O[C@@H](n2cnc3c(N)ncnc32)[C@H](O)[C@@H]1O", "note": "(stereo partly drawn) [SAM, S-adenosyl-L-methionine, reference compound]", "values": [{"measurement": "Km", "setting": "[2]; purified PhMqnE, dithionite (DT) as electron source", "value": 21, "unit": "µM"}]}, {"molecule": "B1", "values": [{"measurement": "Km", "setting": "[3]", "value": 72, "unit": "µM"}]}]}
